Data reported in patent US6436933B1 (priority 2001, dated 2002).

Legend:
[1] = molecular target: T1, Anthrax Lethal Factor (ALF) (Bacillus anthracis, UniProt P15917); assay: biochemical; type: biochemical
[2] = molecular target: T1, Anthrax Lethal Factor (ALF); type: biochemical
[3] = system: B anthracis; settings: monkey, in vivo; cited from earlier work

T1 sequence (P15917 34-809 limits assumed): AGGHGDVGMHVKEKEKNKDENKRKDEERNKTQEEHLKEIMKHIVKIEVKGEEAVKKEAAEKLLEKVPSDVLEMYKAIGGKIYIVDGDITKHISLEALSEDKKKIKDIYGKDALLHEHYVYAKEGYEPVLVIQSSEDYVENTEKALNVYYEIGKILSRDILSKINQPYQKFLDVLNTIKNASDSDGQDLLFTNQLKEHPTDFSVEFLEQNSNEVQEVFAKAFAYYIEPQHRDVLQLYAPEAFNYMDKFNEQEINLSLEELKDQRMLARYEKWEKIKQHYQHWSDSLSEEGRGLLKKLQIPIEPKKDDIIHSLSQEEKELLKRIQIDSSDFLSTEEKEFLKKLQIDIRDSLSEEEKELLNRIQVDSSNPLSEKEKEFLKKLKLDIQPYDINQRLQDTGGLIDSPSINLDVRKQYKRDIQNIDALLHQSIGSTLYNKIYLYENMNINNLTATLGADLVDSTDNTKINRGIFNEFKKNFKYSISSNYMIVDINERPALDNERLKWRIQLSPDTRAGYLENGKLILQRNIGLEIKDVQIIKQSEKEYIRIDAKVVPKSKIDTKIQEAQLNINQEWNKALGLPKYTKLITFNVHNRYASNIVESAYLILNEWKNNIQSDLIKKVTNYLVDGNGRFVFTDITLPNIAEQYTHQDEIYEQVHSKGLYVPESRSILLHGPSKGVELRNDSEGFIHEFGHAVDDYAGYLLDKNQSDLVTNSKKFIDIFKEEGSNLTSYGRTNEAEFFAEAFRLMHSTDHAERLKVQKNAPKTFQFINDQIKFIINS

Compound	Activity by plate, % @ 100 [1] [% @ 100]	other results
O=c1c(Cc2ccccc2)nc(-c2ccc(F)cc2)cn1O [Compound 15, 5-(4-fluorophenyl)-1-hydroxy-3-benzylhydropyrazin-2-one]	33	–
O=c1c(Cc2ccccc2)nc(-c2ccc(N3CCOCC3)cc2)cn1O [Compound 14, 1-hydroxy-5-(4-morpholin-4-ylphenyl)-3-benzylhydropyrazin-2-one]	0	–
O=c1c(Cc2ccc(-c3ccccc3)cc2)nc(-c2ccc3c(c2)OCO3)cn1O [Compound 32, 5-(2H-benzo[d]1,3-dioxolen-5-yl)-1-hydroxy-3-[(4-phenylphenyl)methyl] hydropyrazin-2-one]	40	–
Cc1ccc(-c2cn(O)c(=O)c(Cc3ccc(-c4ccccc4)cc3)n2)cc1 [Compound 46, 1-hydroxy-5-(4-methylphenyl)-3-[(4-phenylphenyl)methyl]hydropyrazin-2-one]	46	–
O=c1c(Cc2ccccc2)nc(-c2ccc3ccccc3c2)cn1O [Compound 19, 1-hydroxy-5-(2-naphthyl)-3-benzylhydropyrazin-2-one]	59	–
Cc1cc(-c2cn(O)c(=O)c(Cc3ccc(-c4ccccc4)cc3)n2)ccc1Cl [Compound 45, 5-(4-chloro-3-methylphenyl)-1-hydroxy-3-[(4-phenylphenyl)methyl] hydropyrazin-2-one]	47	–
O=c1c(Cc2ccccc2)nc(-c2ccccc2)cn1O [Compound 7, 1-hydroxy-5-phenyl-3-benzylhydropyrazin-2-one]	–	IC50 [1]: 15 µM
O=c1c(Cc2ccc(-c3ccccc3)cc2)nc(-c2ccc(-c3ccccc3)cc2)cn1O [Compound 28, 1-hydroxy-5-(4-phenylphenyl)-3-[(4-phenylphenyl)methyl]hydropyrazin-2-one]	–	IC50 [1]: 12 µM
O=c1c(Cc2ccc(-c3ccccc3)cc2)nc(-c2ccccc2)c(-c2ccccc2)n1O [Compound 11, 3-(4′-phenyl)-benzyl-5,6diphenyl-1-hydroxy-2-oxo-1,2-dihydropyrazine]	–	Activity by Gel, % @ 100 [2]: 2% @ 100
Cc1ccc(-c2cn(O)c(=O)c(Cc3ccccc3)n2)cc1 [Compound 41, 1-hydroxy-5-(4-methylphenyl)-3-benzylhydropyrazin-2-one]	13	–
Cc1c(-c2ccccc2)nc(Cc2ccc(-c3ccccc3)cc2)c(=O)n1O [Compound 12, 3-(4′-phenyl)-benzyl-5-phenyl-6-methyl-1-hydroxy-2-oxo-1,2-dihydropyrazine]	–	IC50 [1]: 15 µM
O=c1c(Cc2ccccc2)nc(-c2ccc(O)cc2)cn1O [Compound 21, 1-hydroxy-5-(4-hydroxyphenyl)-3-benzylhydropyrazin-2-one]	7	–
CCCCCc1ccc(-c2cn(O)c(=O)c(Cc3ccccc3)n2)cc1 [Compound 42, 1-hydroxy-5-(4-pentylphenyl)-3-benzylhydropyrazin-2-one]	16	–
O=c1c(Cc2ccccc2)nc(-c2ccc(Cl)c(Cl)c2)cn1O [Compound 39, 5-(3,4-dichlorophenyl)-1-hydroxy-3-benzylhydropyrazin-2-one]	45	–
CC(C)Cc1nc(-c2ccccc2)cn(O)c1=O [Compound 4, 1-hydroxy-3-(2-methylpropyl)-5-phenylhydropyrazin-2-one]	–	Activity by Gel, % @ 200 [2]: 0% @ 200
O=c1c(Cc2ccccc2)nc(-c2cccs2)cn1O [Compound 16, 1-hydroxy-3-benzyl-5-(2-thienyl)hydropyrazin-2-one]	33	–
O=c1c(Cc2ccccc2)nc(-c2ccc(Br)cc2)cn1O [Compound 20, 5-(4-bromophenyl)-1-hydroxy-3-benzylhydropyrazin-2-one]	63	–
O=c1c(Cc2ccc(-c3ccccc3)cc2)nc(-c2ccc(F)cc2)cn1O [Compound 27, 5-(4-fluorophenyl)-1-hydroxy-3-[(4-phenylphenyl)methyl]hydropyrazin-2-one]	12	–
N#Cc1ccc(-c2cn(O)c(=O)c(Cc3ccccc3)n2)cc1 [Compound 24, 4-[4-hydroxy-5-oxo-6-benzyl-4-hydropyrazin-2-yl]benzenecarbonitrile]	41	–
O=c1c(Cc2ccc(-c3ccccc3)cc2)nc(-c2ccc(Br)cc2)cn1O [Compound 31, 5-(4-bromophenyl)-1-hydroxy-3-[(4-phenylphenyl)methyl]hydropyrazin-2-one]	–	IC50 [1]: 5 µM
O=c1c(Cc2ccccc2)nc(-c2ccc([N+](=O)[O-])cc2)cn1O [Compound 23, 1-hydroxy-5-(4-nitrophenyl)-3-benzylhydropyrazin-2-one]	7	–

Compound	Activity by plate, % @ 100 [1] [% @ 100]	other results
O=c1c(Cc2ccccc2)nc(-c2ccc(-c3ccccc3)cc2)cn1O [Compound 17, 1-hydroxy-3-benzyl-5-(4-phenylphenyl)hydropyrazin-2-one]	41	–
CCc1nc(C(C)C)c(=O)n(O)c1CC [Compound 2, 3-isopropyl-5,6diethyl-1-hydroxy-2-oxo-1,2dihydropyrazine]	–	Activity by Gel, % @ 200 [2]: 0% @ 200
O=c1c(Cc2ccc(-c3ccccc3)cc2)nc(-c2ccc(Cl)c(Cl)c2)cn1O [Compound 44, 5-(3,4-dichlorophenyl)-1-hydroxy-3-[(4-phenylphenyl)methyl] hydropyrazin-2-one]	45	–
CCCCCc1ccc(-c2cn(O)c(=O)c(Cc3ccc(-c4ccccc4)cc3)n2)cc1 [Compound 47, 1-hydroxy-5-(4-pentylphenyl)-3-[(4-phenylphenyl)methyl]hydropyrazin-2-one]	39	–
penicillin	–	monkeys that survived a lethal aerosol challenge [3]: 7 of 10
O=c1c(Cc2ccccc2)nc(-c2ccccc2)c(-c2ccccc2)n1O [Compound 5, 1-hydroxy-5,6-diphenyl-3-benzylhydropyrazin-2-one]	–	Activity by Gel, % @ 200 [2]: 45% @ 200; IC50 [1]: 6 µM
CC(=O)Nc1ccc(-c2cn(O)c(=O)c(Cc3ccccc3)n2)cc1 [Compound 25, N-{4-[4-hydroxy-5-oxo-6-benzyl-4-hydropyrazin-2-yl]phenyl}acetamide]	19	–
O=c1c(Cc2ccc(-c3ccccc3)cc2)nc(-c2ccc3ccccc3c2)cn1O [Compound 30, 1-hydroxy-5-(2-naphthyl)-3-[(4-phenylphenyl)methyl]hydropyrazin-2-one]	54	–
O=c1c(Cc2ccccc2)nc(-c2ccc3c(c2)OCO3)cn1O [Compound 22, 5-(2H-benzo[d]1,3-dioxolen-5-yl)-1-hydroxy-3-benzylhydropyrazin-2-one]	39	–
O=c1c(Cc2ccc(-c3ccccc3)cc2)nc(-c2ccc(N3CCOCC3)cc2)cn1O [Compound 26, 1-hydroxy-5-(4-morpholin-4-ylphenyl)-3-[(4-phenylphenyl)methyl] hydropyrazin-2-one]	37	–
Cc1c(-c2ccccc2)nc(Cc2ccccc2)c(=O)n1O [Compound 6, 1-hydroxy-6-methyl-5-phenyl-3-benzylhydropyrazin-2-one]	–	IC50 [1]: 70 µM
O=C(O)c1cn(C2CC2)c2cc(N3CCNCC3)c(F)cc2c1=O [ciprofloxacin]	–	monkeys that survived a lethal aerosol challenge [3]: 8 of 9
Cc1c(-c2ccccc2)nc(CC(C)C)c(=O)n1O [Compound 3, 1-hydroxy-6-methyl-3-(2-methylpropyl)-5-phenylhydropyrazin-2-one]	–	Activity by Gel, % @ 200 [2]: 0% @ 200
O=c1c(Cc2ccccc2)nc(-c2ccc(C3CCCCC3)cc2)cn1O [Compound 18, 5-(4-cyclohexylphenyl)-1-hydroxy-3-benzylhydropyrazin-2-one]	–	IC50 [1]: 8 µM
Cc1cc(-c2cn(O)c(=O)c(Cc3ccccc3)n2)ccc1Cl [Compound 40, 5-(4-chloro-3-methylphenyl)-1-hydroxy-3-benzylhydropyrazin-2-one]	18	–
N#Cc1ccc(-c2cn(O)c(=O)c(Cc3ccc(-c4ccccc4)cc3)n2)cc1 [Compound 33, 4-{4-hydroxy-5-oxo-6-[(4-phenylphenyl)methyl]-4-hydropyrazin-2-yl} benzenecarbonitrile]	51	–
O=c1c(Cc2ccc(-c3ccccc3)cc2)nc(-c2ccc(C(F)(F)F)cc2)cn1O [Compound 48, 1-hydroxy-3-[(4-phenylphenyl)methyl]-5-[4-(trifluoromethyl)phenyl] hydropyrazin-2-one]	25	–
CC(C)c1nc(-c2ccccc2)c(-c2ccccc2)n(O)c1=O [Compound 1, 3-isoprpyl-5,6dipheny-1-1-hydroxy-2-oxo-1,2-dihydropyrazine]	–	Activity by Gel, % @ 200 [2]: 0% @ 200
O=c1c(Cc2ccccc2)nc(-c2ccc(C(F)(F)F)cc2)cn1O [Compound 43, 1-hydroxy-3-benzyl-5-[4-(trifluoromethyl)phenyl]hydropyrazin-2-one]	0	–
O=c1c(Cc2ccc(-c3ccccc3)cc2)nc(-c2ccc(C3CCCCC3)cc2)cn1O [Compound 29, 5-(4-cyclohexylphenyl)-1-hydroxy-3-[(4-phenylphenyl)methyl] hydropyrazin-2-one]	59	–
